The text below walks through data of US8252748B2, “Peptide derived from neurotensin receptor 3 and use thereof in the treatment of psychiatric diseases” (Centre National de la Recherche Scientifique—CNRS, priority 2007, dated 2012).

No end group written: not given here.

One series has as its system mouse (C57Black/J). The experiment in a line: Forced swimming test (FST). The series is classed as in vivo. An excerpt: The inventors conducted three types of behavioral experiments that are regarded as classical for determining the antidepressant activity of a substance (Nestler E. J., Gould E., Manji H., Buncan M., Duman R. S., Greshenfeld H. K., Hen, R. et al. “Preclinical models: status of basic research in depression” Biol Psychiatry. 15, 503-528 (2002) (20) and Cryan, J. & Holmes, A. “The ascent of mouse: advances in modeling human depression and anxiety” Nat Rev Drug Discov. 4, 775-790 (2005) (21)). The effects of the propeptide of the present invention were compared with those of the saline solution in which it is dissolved and with those of fluoxetine, one of the most-used antidepressants in clinical practice. The mouse strain used is C57Black/J strain. TREK-1^−/− mice were also measured in these various tests.
The propeptide is dissolved in 0.9% NaCl saline solution to the desired concentrations: 10^−5 M, 10^−6 M, 10^−7 M and […]. Different volumes are injected depending on the technique used: • intracerebroventricular: 5 μl • intravenous: 100 μl • intraperitoneal: 100 μl
For the ICV injections, a Hamilton syringe (Fisher Bioblock) (trademark) of 10 μl is used, and in the case of IV or IP injections, a needle of 0.45×12 mm is used.
A. Forced Swimming Test (FST) (Cryan & Holmes, 2005 (21)) […]

For another series, the system named is C57BL6/J mice. The experiment in a line: Tail flick test of sensitivity to pain. The conditions noted are these: bath at 48° C.; 100 μl at 10^−6 M; 30 minutes after injection. The class given is in vivo, mouse. The procedure: This test consists of immersing the tail of a mouse in a bath at 48° C. and measuring the time it takes to withdraw it from the bath. Before any injections, a habituation test was carried out on the mouse. It consists of immersing the tail of each animal twice in the bath so as to have homogeneous groups before any treatment (obtaining a reaction time less than 12 seconds). Then the mice were injected with 100 μl of physiological saline solution (“PHYS SALINE”) or 100 μl of peptide of sequence ID No. 2 at a concentration of 10^−6 M (“PE 10^−6M”).
The mice used were C57BL6/J mice. Each group was constituted of 10 mice.
The measurements were taken 30 minutes after injection.
The difference was evaluated using the Student t test.

Series [1] has as its system hippocampus progenitor cells. The experiment in a line: Neurogenesis (BrdU-positive cells) after 4 days of treatment. The conditions noted are these: PE 10^−5 M. The series is classed as in vivo, mouse. From the text: In contrast to many antidepressants now commonly used, the efficacy of action of the peptide of the invention is very rapid. […] 93: 3908-3913 (1996) (28) and with a considerable decrease in neurogenesis in the dentate gyrus (Gould, E., Tanapat, P., McEwen, B. S., Flugge, G., Fuchs, E. “Proliferation of granule cell precursors in the dentate gyrus of adult monkeys is diminished by stress” Proc Natl Acad Sci USA, 95: 3168-3171 (1998)) (29).
The experimental protocol is that described in the material and methods (Supplement) of the work of Santarelli et al., “Requirement of hippocampal neurogenesis for the behavioral effects of antidepressants” Science, 301: 805-809 (2003) (24) apart from the duration of treatment, which is four days.
The increase was evaluated using the one-factor ANOVA test followed by the post-hoc test.

“APLPRWSGPIGVSWGLR [propeptide, APLPRWSGPIGVSWGLR]”: the “effect on immobility time” value with mouse (C57Black/J) (ICV, IV or IP injection, 30 min after injection) is reported as “comparable to those produced by fluoxetine”. Moreover, the “crossing of the blood-brain barrier (BBB)” value with mouse (C57Black/J) (inferred from activity by intravenous or intraperitoneal as well as central route) was “easily crosses the blood-brain barrier”. Moreover, the “time to withdraw tail from bath” value in the series on C57BL6/J mice amounted to 8.3 ± 0.7 s. Moreover, the “neurogenesis relative to physiological saline” value in series [1] is “significant increase in neurogenesis”.
